{"source": "patent US10370391B2", "about": "“Hydrogen peroxide-activable, anti-oxidant compounds and methods using same” (Beth Israel Deaconess Medical Center, Inc., priority 2014, dated 2019)", "key": {"iNOS": {"tested_on": "iNOS", "experiment": "iNOS level in LPS-stimulated macrophage cells", "type": "cell-based, mouse", "experimental": "(§1) FIG. 4, comprising FIGS. 4A-4F, is a set of graphs, bar graphs and images illustrating anti-oxidant and anti-inflammatory effects of BRAP in vitro. […] The generation of ROS was monitored by flow cytometry as an indicator of DCF fluorescence. Fluorescence was analyzed in 10,000 cells with excitation at 480 nm and emission at 530 nm. FIG. 4C: Protective effect of BRAP on H2O2— stimulated adult rat cardiomyocytes. V=vehicle, *<0.05 vs. V+H2O2 (n=4). […] (n=4/group).\n(§2) The anti-inflammatory effects of BRAP on LPS-stimulated cells were investigated by measuring the level of inflammatory cytokines such as TNF-α (tumor necrosis factor-alpha) and iNOS (inducible nitric oxide synthases) (FIGS. 4E-4F). […] These observations indicate that BRAP, as well as BRAP-encapsulated PLGA microparticles, is able to scavenge overproduced H2O2 and serve as a H2O2-activable anti-oxidant. Further, the enhanced anti-oxidant activity of BRAP is derived from the combined effects of H2O2-scavenging boronic esters and HBA generation after H2O2-mediated boronate oxidation."}, "[1]": {"tested_on": "nitric oxide production in LPS-treated cells", "experiment": "Nitric oxide generation in LPS-treated cells (Griess reaction)", "type": "cell-based", "conditions": "HBA alone", "experimental": "as §1\nNitric oxide is one of major sources of oxidative stress and a well-known pro-inflammatory mediator in the pathogenesis of inflammation (Lundberg, et al., 1997, Nature Medicine 3:30). The effects of BRAP on the generation of nitric oxide in LPS-treated cells were studied using a colorimetric assay based on the Griess reaction."}, "TNF-α": {"tested_on": "TNF-α", "experiment": "TNF-α level in LPS-stimulated macrophage cells", "type": "cell-based, mouse", "experimental": "as §1, §2"}, "[2]": {"experiment": "H2O2 scavenging by peroxalate chemiluminescence (diphenyl oxalate, rubrene)", "conditions": "H2O2 solution 10 μM; HBA alone 10 μM", "experimental": "FIG. 21 is a bar graph illustrating H2O2-scavenging by BRAP-encapsulated PLGA microparticles. BRAP-encapsulated PLGA microparticles were incubated in H2O2 solution (10 μM) for 10 minutes, and the level of H2O2 was determined by peroxalate chemiluminesce using rubrene (1 mg) and diphenylperoxalate (10 mg).\nWithout wishing to be limited by any theory, BRAP could scavenge H2O2 during its H2O2-mediated boronate oxidation. This possibility was investigated using peroxalate chemiluminescence. Peroxalate chemiluminescence has been used as a versatile tool for the detection of a variety of chemical species including fluorescent molecules and H2O2 because of its excellent specificity and simplicity (Hadd, et al., 1999, J. Chem. Educ. 76:1237; Lee, et al., 2011, Bull. Korean Chem. Soc. 32:2187). […] A majority of H2O2 was scavenged by the same concentration of BRAP within 1 minutes.\nThe ability of the boronate compound to scavenge H2O2 was evaluated by measuring the chemiluminescence intensity after the reaction with diphenyl oxalate solution including rubrene. The boronate (1 μM, or 10 μM) was added in the H2O2 solution (10 μM). After 1 min reaction with H2O2, diphenyl oxalate solution was added to the H2O2 solution, and the chemiluminescence intensity was measured by using a luminometer (Femtomaster FB 12, Zylux Corporation, TN, US; FIG. 13).\nThe ability of BRAP to scavenge H2O2 was evaluated by measuring the chemiluminescence intensity after the reaction with diphenyl oxalate solution including rubrene. BRAP (1 μM, 5 μM, 10 μM, 20 μM) was added in the H2O2 solution (10 μM). After 1, 5 or 10 min reaction with H2O2, diphenyl oxalate solution was added to the H2O2 solution, and the chemiluminescence intensity was measured by using a luminometer (Femtomaster FB 12, Zylux Corporation, TN, US)."}, "hepatic I/R injury": {"tested_on": "hepatic I/R injury", "experiment": "Mouse model of hepatic I/R injury", "type": "in vivo", "conditions": "ip at reperfusion", "experimental": "FIG. 5, comprising FIGS. 5A-5D, is a set of images and bar graphs illustrating beneficial effects of BRAP in hepatic I/R (1 hour ischemia/12 hour reperfusion) injury. FIG. 5A: Hematoxylin and eosin (H/E) staining, DHE staining, and TUNEL staining of mouse liver after injection with HBA or BRAP. FIGS. 5B-5D: Quantitative analysis of serum ALT levels (FIG. 5B), cleaved caspase-3 protein expression (FIG. 5C), and TNF-α protein expression (FIG. 5D) after I/R injury. *p<0.01 relative to Veh I/R. †p<0.05 relative to HBA I/R (n=3˜4/group). Actin protein expression was used as an internal control for protein loading.\nExperiments to evaluate whether BRAP reduces ROS generation and inhibits apoptosis were performed in a mouse model of […] I/R injuries. I/R was induced first by 1 hour of ligation of hepatic artery and portal vein followed by reperfusion of hepatic artery. BRAP or HBA was then administrated intraperitoneally (ip) at the time of reperfusion.\nHepatic I/R surgery was performed in 12 week-old male mice. Briefly, mice were anaesthetized, and midline incision was performed for laparotomy. After identifying the portal triad and biliary tree, the main trunk of hepatic artery and portal vein were clamped with vascular clip except for the vasculatures to the right lower lobe to achieve ischemic injury to approximately 70% of the liver. After 1 hour of ischemia, reperfusion was achieved by releasing the vascular clip. No vascular clamp was done for the sham group of mice.\nFor liver apoptosis assay, terminal deoxynucleotidyl transferase dUTP nick end labeling (TUNEL) staining was performed using a DeadEnd™ Fluorometric TUNEL kit (Promega, Madison, Wis.). Tissue sections were stained for nuclei (4′,6-diamidino-2-phenylindole (DAPI) staining) and apoptotic nuclei (TUNEL staining) and analyzed using a confocal laser scanning microscope. For heart tissues, TUNEL staining was performed using in situ cell death detection Kit, fluorescein (Roche Applied Science, Indianapolis, Ind.). To distinguish cardiomyocyte from non-cardiomyocyte nuclei, triple stain for nuclei (DAPI staining), apoptotic nuclei (TUNEL staining), and cardiomyocytes (α-Actinin staining) was used, and the stained sections were analyzed using confocal microscopy. A minimum of ˜10 high power fields with ˜2000 nuclei/field were counted for each sample.\nHeart tissues were collected for molecular analyses were performed in Bae, et al., 2010, Am J Physiol Heart Circ Physiol 299:H1374. For RT-PCR ribosomal 18S primers acted as internal controls and all RT-PCR signals were normalized to the 18S signal of the corresponding RT products. For Western blot analysis, the protein content was measured using BCA assay. Actin protein expression was used as an internal control for protein loading.\nThe optimal cutting temperature (OCT)-embedded tissues were fixed in 4% paraformaldehyde. Tissue sections were incubated with 5 μM dihydroethidium (DHE, Sigma-Aldrich) at 37° C. for 30 min in a humidified chamber protected from light. Then, 4′,6-diamidino-2-phenylindole (DAPI) was applied. Images were acquired by confocal fluorescence microscope."}, "[3]": {"tested_on": "mouse macrophage (RAW 264.7) cells stimulated by LPS", "experiment": "Intracellular ROS generation in LPS-stimulated macrophages (DCFH-DA, flow cytometry)", "type": "cell-based", "conditions": "HBA 0.5 mM; LPS 1 μg/mL", "experimental": "as §1\nThe anti-oxidant activities of BRAP were examined using mouse macrophage (RAW 264.7) and fibroblast (NIH/3T3) cells stimulated by LPS (lipopolysaccharide) (FIGS. 4A-4B). Intracellular ROS production in the stimulated cells was analyzed by flow cytometry using DCFH-DA ([…]-diacetate), which can be oxidized by the action of various intracellular oxidants such as H2O2 and hydroxyl radical to become fluorescent […] (DCF) (Kim, et al., 2011, Biomat. 32:3021; Cho, et al., 2012, Adv. Funct. Mat. 22:4038). Untreated cells have no significant DCF fluorescence."}}}
{"smiles": "OCc1ccc(O)cc1", "note": "[HBA, 4-hydroxybenzyl alcohol, reference compound]", "values": [{"measurement": "iNOS level", "setting": "iNOS", "result": "failed to reduce iNOS level"}, {"measurement": "concentration at which nitric oxide production was inhibited", "setting": "[1]", "result": "higher than 0.5 mM"}, {"measurement": "TNF-α level", "setting": "TNF-α", "result": "reduced the expression of TNF-α but only at a higher dose than BRAP"}, {"measurement": "chemiluminescence intensity (H2O2 scavenging)", "setting": "[2]", "result": "did not reduce chemiluminescence intensity"}, {"measurement": "ROS generation (DHE staining) in liver", "setting": "hepatic I/R injury", "result": "suppressed"}, {"measurement": "protection from I/R-induced liver damage (serum ALT)", "setting": "hepatic I/R injury", "result": "much less potent protective effect"}, {"measurement": "hepatic damages (histology, H/E)", "setting": "hepatic I/R injury; 1 hour ischemia/12 hour reperfusion, same dose of HBA and BRAP", "result": "minimal therapeutic effects"}, {"measurement": "TNF-α protein expression", "setting": "hepatic I/R injury; same dose of HBA and BRAP", "result": "minimal inhibitory effects"}, {"measurement": "cleaved caspase-3 protein expression", "setting": "hepatic I/R injury; same dose of HBA and BRAP", "result": "minimal inhibitory effects"}, {"measurement": "hepatic apoptosis (TUNEL)", "setting": "hepatic I/R injury; same dose of HBA and BRAP", "result": "modest inhibitory effects"}, {"measurement": "inhibition of LPS-induced ROS generation", "setting": "[3]", "result": "moderate inhibitory effects"}]}
